Test results from ChEMBL document CHEMBL3046716, “Design of potent human steroid 5-reductase inhibitors: 3D-QSAR CoMFA, CoMSIA and docking studies” (Med Chem Res, 2013).

Tests used:
Homo sapiens [1] = organism: Homo sapiens; assay: Ratio of compound pIC50 to (4aR,4bS,6aS,7S,9aS,9bS,11aR)-N,N-diethyl-1,4a,6a-trimethyl-2-oxohexadecahydro-1H-indeno[5,4-f]quinoline-7-carboxamide pIC50 for human steroid 5alpha-reductase
Homo sapiens [2] = organism: Homo sapiens; assay: Ratio of compound IC50 to (4aR,4bS,6aS,7S,9aS,9bS,11aR)-N,N-diethyl-1,4a,6a-trimethyl-2-oxohexadecahydro-1H-indeno[5,4-f]quinoline-7-carboxamide IC50 for human steroid 5alpha-reductase

| SMILES | pIC50 (Homo sapiens [1]) | Ratio IC50 (Homo sapiens [2]) |
| --- | --- | --- |
| CCCCCCCNC(=O)[C@H]1CC[C@H]2[C@@H]3CC[C@H]4N(C)C(=O)CC[C@]4(C)[C@H]3CC[C@]12C | 7.4 | 4 |
| CN1C(=O)CC[C@]2(C)[C@H]3CC[C@]4(C)[C@@H](C(=O)SC(C)(C)C)CC[C@H]4[C@@H]3CC[C@@H]12 | 6.33 | 47 |
| CCN(CC)C(=O)C[C@H]1CC[C@H]2[C@@H]3CC[C@H]4N(C)C(=O)CC[C@]4(C)[C@H]3CC[C@]12C | 7.7 | 2 |
| CCCCCCCNC(=O)[C@H]1CC[C@H]2[C@@H]3CC[C@H]4NC(=O)CC[C@]4(C)[C@H]3CC[C@]12C | 7.62 | 2.4 |
| CCC(C)C(=O)[C@H]1CC[C@H]2[C@@H]3CC[C@H]4NC(=O)CC[C@]4(C)[C@H]3CC[C@]12C (stereo not given in full) | 7.4 | 4 |
| CCN(CC)C(=O)[C@H]1CC[C@H]2[C@@H]3CC[C@H]4N(C)C(=O)[C@@H](OC)C[C@]4(C)[C@H]3CC[C@]12C | 6.82 | 15 |
| CCN(CC)C(=O)[C@H]1CC[C@H]2[C@@H]3CC[C@H]4N(C)C(=O)[C@@H](C)C[C@]4(C)[C@H]3CC[C@]12C | 7.44 | 3.6 |
| CC(C)(C)CC(C)(C)NC(=O)[C@H]1CC[C@H]2[C@@H]3CC[C@H]4NC(=O)CC[C@]4(C)[C@H]3CC[C@]12C | 8.25 | 0.56 |
| CCN(CCO)C(=O)[C@H]1CC[C@H]2[C@@H]3CC[C@H]4N(C)C(=O)CC[C@]4(C)[C@H]3CC[C@]12C | 7.52 | 3 |
| CN1C(=O)CC[C@]2(C)[C@H]3CC[C@]4(C)[C@@H](C(=O)NC(C)(C)CC(C)(C)C)CC[C@H]4[C@@H]3CC[C@@H]12 | 8.28 | 0.52 |
| CCN(CC)C(=O)CC[C@@H](C)[C@H]1CC[C@H]2[C@@H]3CC[C@H]4N(C)C(=O)CC[C@]4(C)[C@H]3CC[C@]12C | 6.57 | 27 |
| COC(=O)[C@H](C)[C@H]1CC[C@H]2[C@@H]3CC[C@H]4N(C)C(=O)CC[C@]4(C)[C@H]3CC[C@]12C | 5.84 | 143 |
| CN1C(=O)CC[C@]2(C)[C@H]3CC[C@]4(C)[C@@H](C5=NC(C)(C)CO5)CC[C@H]4[C@@H]3CC[C@@H]12 | 5.9 | 125 |
| C[C@]12CCC(=O)N[C@@H]1CC[C@@H]1[C@@H]2CC[C@]2(C)[C@@H](C(=O)c3ccco3)CC[C@@H]12 | 7.44 | 3.6 |
| CC(C)CC(=O)[C@H]1CC[C@H]2[C@@H]3CC[C@H]4NC(=O)CC[C@]4(C)[C@H]3CC[C@]12C | 7.38 | 4.2 |
| CCN(CC)C(=O)/C=C1/CC[C@H]2[C@@H]3CC[C@H]4N(C)C(=O)CC[C@]4(C)[C@H]3CC[C@]12C | 7.82 | 1.5 |
| CCN(CC)C(=O)[C@H]1CC[C@H]2[C@@H]3CC[C@H]4N(C)C(=O)C[C@H](C)[C@]4(C)[C@H]3CC[C@]12C | 7.16 | 7 |
| C[C@]12CCC(=O)N[C@@H]1CC[C@@H]1[C@@H]2CC[C@@]2(C)[C@H]1CC[C@@]21CCCO1 | 5.13 | 735 |
| CC(C)CC(=O)[C@H]1CC[C@H]2[C@@H]3CC[C@H]4N(C)C(=O)CC[C@]4(C)[C@H]3CC[C@]12C | 7.57 | 2.7 |
| CCN(CC)C(=O)[C@H]1CC[C@H]2[C@@H]3CC[C@H]4N(C)C(=O)[C@@H]5O[C@@H]5[C@]4(C)[C@H]3CC[C@]12C | 6.2 | 63 |
| CN1C(=O)CC[C@]2(C)[C@H]3CC[C@]4(C)[C@@H](C5=NCCO5)CC[C@H]4[C@@H]3CC[C@@H]12 | 6.96 | 11 |
| CN1C(=O)CC[C@]2(C)[C@H]3CC[C@]4(C)[C@@H](C(=O)NC(C)(C)CO)CC[C@H]4[C@@H]3CC[C@@H]12 | 7.7 | 2 |
| CC(C)(C)NC(=O)[C@H]1CC[C@H]2[C@@H]3CC[C@H]4NC(=O)CC[C@]4(C)[C@H]3CC[C@]12C | 7.77 | 1.7 |
| COC(=O)[C@H]1CC[C@H]2[C@@H]3CC[C@H]4N(C)C(=O)CC[C@]4(C)[C@H]3CC[C@]12C | 6.77 | 17 |
| CCN(CC)C(=O)[C@H]1CC[C@H]2[C@@H]3CC[C@H]4N(C)C(=O)[C@@H](F)C[C@]4(C)[C@H]3CC[C@]12C | 7.3 | 5 |

| SMILES | pIC50 (Homo sapiens [1]) | Ratio IC50 (Homo sapiens [2]) |
| --- | --- | --- |
| CC(C)(C)OC(=O)[C@H]1CC[C@H]2[C@@H]3CC[C@H]4NC(=O)CC[C@]4(C)[C@H]3CC[C@]12C | 7.07 | 8.6 |
| CN1C(=O)CC[C@]2(C)[C@H]3CC[C@]4(C)[C@@H](C#N)CC[C@H]4[C@@H]3CC[C@@H]12 | 6.08 | 83 |
| CCOC(=O)C[C@H]1CC[C@H]2[C@@H]3CC[C@H]4N(C)C(=O)CC[C@]4(C)[C@H]3CC[C@]12C | 6.54 | 29 |
| CC(C)N(C(=O)[C@H]1CC[C@H]2[C@@H]3CC[C@H]4N(C)C(=O)CC[C@]4(C)[C@H]3CC[C@]12C)C(C)C | 8.09 | 0.82 |
| CN1C(=O)CC[C@]2(C)[C@H]3CC[C@]4(C)[C@@H](C(=O)N5CCOCC5)CC[C@H]4[C@@H]3CC[C@@H]12 | 7.25 | 5.6 |
| CN1C(=O)CC[C@]2(C)[C@H]3CC[C@]4(C)[C@@H](C(=O)c5ccco5)CC[C@H]4[C@@H]3CC[C@@H]12 | 7.7 | 2 |
| CCCCCNC(=O)[C@H]1CC[C@H]2[C@@H]3CC[C@H]4N(C)C(=O)CC[C@]4(C)[C@H]3CC[C@]12C | 7.62 | 2.4 |
| COC(CNC(=O)[C@H]1CC[C@H]2[C@@H]3CC[C@H]4NC(=O)CC[C@]4(C)[C@H]3CC[C@]12C)OC | 6.7 | 20 |
| C[C@H](CO)[C@H]1CC[C@H]2[C@@H]3CC[C@H]4N(C)C(=O)CC[C@]4(C)[C@H]3CC[C@]12C | 6.82 | 15 |
| COC(=O)[C@H]1CC[C@H]2[C@@H]3CC[C@H]4NC(=O)CC[C@]4(C)[C@H]3CC[C@]12C | 6.38 | 42 |
| CC(C)NC(=O)[C@H]1CC[C@H]2[C@@H]3CC[C@H]4N(C)C(=O)CC[C@]4(C)[C@H]3CC[C@]12C | 7.4 | 4 |
| CCN(CC)C(=O)CNC(=O)[C@H]1CC[C@H]2[C@@H]3CC[C@H]4N(C)C(=O)CC[C@]4(C)[C@H]3CC[C@]12C | 6.96 | 11 |
| CNC(=O)[C@H]1CC[C@H]2[C@@H]3CC[C@H]4N(C)C(=O)CC[C@]4(C)[C@H]3CC[C@]12C | 6.55 | 28 |
| CCN(CC)C(=O)[C@H]1CC[C@H]2[C@@H]3CC[C@H]4N(C)C(=O)CC[C@]4(C)[C@H]3CC[C@]12C | 8 | 1 |
| CN1C(=O)CC[C@]2(C)[C@H]3CC[C@]4(C)[C@@H](C(=O)NC(C)(C)C)CC[C@H]4[C@@H]3CC[C@@H]12 | 7.96 | 1.1 |
| CC(=O)[C@H]1CC[C@H]2[C@@H]3CC[C@H]4N(C)C(=O)CC[C@]4(C)[C@H]3CC[C@]12C | 6.57 | 27 |
| CN1C(=O)CC[C@]2(C)[C@H]3CC[C@@]4(C)[C@@H](CC[C@@]45CCCO5)[C@@H]3CC[C@@H]12 | 5.84 | 144 |
| C[C@]12CCC(=O)N[C@@H]1CC[C@@H]1[C@@H]2CC[C@]2(C)[C@@H](C(N)=O)CC[C@@H]12 | 5.82 | 150 |
| CCN(CC)C(=O)[C@@H](C)[C@H]1CC[C@H]2[C@@H]3CC[C@H]4N(C)C(=O)CC[C@]4(C)[C@H]3CC[C@]12C | 5.41 | 390 |
| CCN(CC)C(=O)[C@H]1CC[C@H]2[C@@H]3CC[C@H]4N(C)C(=O)C(OC)(OC)C[C@]4(C)[C@H]3CC[C@]12C | 6.55 | 28 |
| CCNC(=O)[C@H]1CC[C@H]2[C@@H]3CC[C@H]4N(C)C(=O)CC[C@]4(C)[C@H]3CC[C@]12C | 7.03 | 9.4 |
| CCN(CC)C(=O)[C@H]1CC[C@H]2[C@@H]3CC[C@H]4N(C)C(=O)[C@@H]5C[C@@H]5[C@]4(C)[C@H]3CC[C@]12C | 7.89 | 1.3 |
| CC(C)N(C(=O)[C@H]1CC[C@H]2[C@@H]3CC[C@H]4NC(=O)CC[C@]4(C)[C@H]3CC[C@]12C)C(C)C | 7.82 | 1.5 |
| CCN(CC)C(=O)[C@H]1CC[C@H]2[C@@H]3CC[C@H]4NC(=O)CC[C@]4(C)[C@H]3CC[C@]12C | 7.92 | 1.2 |
| CC(O)[C@H]1CC[C@H]2[C@@H]3CC[C@H]4N(C)C(=O)CC[C@]4(C)[C@H]3CC[C@]12C (stereo not given in full) | 6.77 | 17 |
